# Source: the supplement of paper PMC10307832
# What was measured:
# Assay in all cases: relative viability (nuclei count vs DMSO), 5 days (fraction); higher = more cells survive
# [1] = tested on: CAL-12T
# Method in brief: (§1)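 Five library-drug doses in √10 steps were combined with a fixed anchor-drug dose, or a single drug was given alone, by pin tool to lung cancer cell lines in 1536-well plates the day after seeding. Nuclei were stained and counted after 5 days. Relative viability is the nuclei count in treated wells over that in vehicle wells, taken as the median of duplicate plates.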
# [2] = tested on: NCI-H1792
# Method in brief: as §1
# [3] = tested on: A-427
# Method in brief: as §1
# [4] = tested on: NCI-H2009
# Method in brief: as §1
# [5] = tested on: NCI-H727
# Method in brief: as §1
# [6] = tested on: NCI-H23
# Method in brief: as §1
# [7] = tested on: SW 1573
# Method in brief: as §1
# [8] = tested on: SK-LU-1
# Method in brief: as §1
# [9] = tested on: NCI-H1755
# Method in brief: as §1
# [10] = tested on: NCI-H1395
# Method in brief: as §1
# [11] = tested on: HCC-827
# Method in brief: as §1
# [12] = tested on: EMC-BAC-2
# Method in brief: as §1
# [13] = tested on: HARA
# Method in brief: as §1
# [14] = tested on: HOP-62
# Method in brief: as §1
# [15] = tested on: HCC-366
# Method in brief: as §1
# [16] = tested on: NCI-H1915
# Method in brief: as §1
# [17] = tested on: NCI-H2228
# Method in brief: as §1
# [18] = tested on: NCI-H1437
# Method in brief: as §1
# [19] = tested on: NCI-H460
# Method in brief: as §1
# [20] = tested on: COR-L 105
# Method in brief: as §1
smiles,measurement,setting,value
O=c1cc(N2CCOCC2)oc2c(-c3cccc4c3sc3ccccc34)cccc12 + CS(=O)(=O)CCNCc1ccc(-c2ccc3ncnc(Nc4ccc(OCc5cccc(F)c5)c(Cl)c4)c3c2)o1 [Lapatinib] (partner 2 µM),relative viability,[1]; first compound 0.01 µM,0.707
same,relative viability,[1]; first compound 0.1 µM,0.662
same,relative viability,[1]; first compound 0.3162 µM,0.671
same,relative viability,[1]; first compound 1 µM,0.691
same,relative viability,[2]; first compound 0.01 µM,0.884
same,relative viability,[2]; first compound 0.03162 µM,0.896
same,relative viability,[2]; first compound 0.1 µM,0.808
same,relative viability,[2]; first compound 0.3162 µM,0.874
same,relative viability,[2]; first compound 1 µM,0.828
same,relative viability,[3]; first compound 0.01 µM,1.12
same,relative viability,[3]; first compound 0.03162 µM,1.01
same,relative viability,[3]; first compound 0.1 µM,0.982
same,relative viability,[3]; first compound 0.3162 µM,1.01
same,relative viability,[3]; first compound 1 µM,1.05
same,relative viability,[4]; first compound 0.01 µM,0.906
same,relative viability,[4]; first compound 0.03162 µM,0.915
same,relative viability,[4]; first compound 0.1 µM,0.895
same,relative viability,[4]; first compound 0.3162 µM,0.94
same,relative viability,[4]; first compound 1 µM,1.15
same,relative viability,[5]; first compound 0.01 µM,0.835
same,relative viability,[5]; first compound 0.03162 µM,0.973
same,relative viability,[5]; first compound 0.1 µM,0.925
same,relative viability,[5]; first compound 0.3162 µM,0.717
same,relative viability,[5]; first compound 1 µM,0.954
same,relative viability,[6]; first compound 0.01 µM,0.992
same,relative viability,[6]; first compound 0.03162 µM,1.09
same,relative viability,[6]; first compound 0.3162 µM,1.1
same,relative viability,[6]; first compound 1 µM,1.22
same,relative viability,[7]; first compound 0.01 µM,0.21
same,relative viability,[7]; first compound 0.03162 µM,1.22
same,relative viability,[7]; first compound 0.1 µM,1.06
same,relative viability,[7]; first compound 0.3162 µM,1.07
same,relative viability,[7]; first compound 1 µM,1.14
same,relative viability,[8]; first compound 0.01 µM,0.808
same,relative viability,[8]; first compound 0.03162 µM,0.815
same,relative viability,[8]; first compound 0.1 µM,0.671
same,relative viability,[8]; first compound 0.3162 µM,0.82
same,relative viability,[8]; first compound 1 µM,0.816
same,relative viability,[9]; first compound 0.01 µM,0.81
same,relative viability,[9]; first compound 0.03162 µM,1.02
same,relative viability,[9]; first compound 0.1 µM,1.02
same,relative viability,[9]; first compound 0.3162 µM,1.04
same,relative viability,[9]; first compound 1 µM,1.07
same,relative viability,[10]; first compound 0.01 µM,0.997
same,relative viability,[10]; first compound 0.03162 µM,1.18
same,relative viability,[10]; first compound 0.1 µM,0.826
same,relative viability,[10]; first compound 0.3162 µM,1.04
same,relative viability,[10]; first compound 1 µM,0.854
same,relative viability,[11]; first compound 0.01 µM,0.222
same,relative viability,[11]; first compound 0.03162 µM,0.213
same,relative viability,[11]; first compound 0.1 µM,0.215
same,relative viability,[11]; first compound 0.3162 µM,0.186
same,relative viability,[11]; first compound 1 µM,0.256
same,relative viability,[12]; first compound 0.01 µM,0.732
same,relative viability,[12]; first compound 0.03162 µM,0.946
same,relative viability,[12]; first compound 0.1 µM,0.97
same,relative viability,[12]; first compound 0.3162 µM,0.893
same,relative viability,[12]; first compound 1 µM,0.848
same,relative viability,[13]; first compound 0.01 µM,0.547
same,relative viability,[13]; first compound 0.03162 µM,0.756
same,relative viability,[13]; first compound 0.1 µM,0.702
same,relative viability,[13]; first compound 0.3162 µM,0.797
same,relative viability,[13]; first compound 1 µM,0.665
same,relative viability,[14]; first compound 0.01 µM,0.996
same,relative viability,[14]; first compound 0.03162 µM,0.856
same,relative viability,[14]; first compound 0.1 µM,0.821
same,relative viability,[14]; first compound 0.3162 µM,0.958
same,relative viability,[14]; first compound 1 µM,1.17
same,relative viability,[15]; first compound 0.01 µM,0.968
same,relative viability,[15]; first compound 0.03162 µM,1.06
same,relative viability,[15]; first compound 0.1 µM,1.04
same,relative viability,[15]; first compound 0.3162 µM,1.04
same,relative viability,[15]; first compound 1 µM,1.04
same,relative viability,[16]; first compound 0.01 µM,1.05
same,relative viability,[16]; first compound 0.03162 µM,1.05
same,relative viability,[16]; first compound 0.1 µM,0.957
same,relative viability,[16]; first compound 0.3162 µM,0.977
same,relative viability,[16]; first compound 1 µM,1.05
same,relative viability,[17]; first compound 0.03162 µM,0.978
same,relative viability,[17]; first compound 0.1 µM,1.03
same,relative viability,[17]; first compound 0.3162 µM,1.23
same,relative viability,[17]; first compound 1 µM,1.19
same,relative viability,[18]; first compound 0.01 µM,0.793
same,relative viability,[18]; first compound 0.03162 µM,0.783
same,relative viability,[18]; first compound 0.1 µM,0.811
same,relative viability,[18]; first compound 0.3162 µM,0.849
same,relative viability,[18]; first compound 1 µM,0.813
same,relative viability,[19]; first compound 0.01 µM,0.926
same,relative viability,[19]; first compound 0.03162 µM,1.07
same,relative viability,[19]; first compound 0.1 µM,1.09
same,relative viability,[19]; first compound 0.3162 µM,0.807
same,relative viability,[19]; first compound 1 µM,1.11
same,relative viability,[20]; first compound 0.01 µM,0.384
same,relative viability,[20]; first compound 0.03162 µM,0.327
same,relative viability,[20]; first compound 0.1 µM,0.397
same,relative viability,[20]; first compound 0.3162 µM,0.379
same,relative viability,[20]; first compound 1 µM,0.412
CCN(CC)CCCCNc1ncc2cc(-c3cc(OC)cc(OC)c3)c(NC(=O)NC(C)(C)C)nc2n1 + CS(=O)(=O)CCNCc1ccc(-c2ccc3ncnc(Nc4ccc(OCc5cccc(F)c5)c(Cl)c4)c3c2)o1 [Lapatinib] (partner 2 µM),relative viability,[1]; first compound 0.03162 µM,0.56
same,relative viability,[1]; first compound 0.1 µM,0.703
same,relative viability,[1]; first compound 0.3162 µM,0.674
same,relative viability,[1]; first compound 1 µM,0.62
same,relative viability,[2]; first compound 0.01 µM,0.97
same,relative viability,[2]; first compound 0.03162 µM,0.886
same,relative viability,[2]; first compound 0.1 µM,1.21
same,relative viability,[2]; first compound 0.3162 µM,1.64
same,relative viability,[2]; first compound 1 µM,0.433
same,relative viability,[3]; first compound 0.01 µM,1.15
same,relative viability,[3]; first compound 0.03162 µM,0.971
same,relative viability,[3]; first compound 0.1 µM,1.08
same,relative viability,[3]; first compound 0.3162 µM,1.1
same,relative viability,[3]; first compound 1 µM,0.899
same,relative viability,[4]; first compound 0.01 µM,0.898
same,relative viability,[4]; first compound 0.03162 µM,0.971
same,relative viability,[4]; first compound 0.1 µM,0.956
same,relative viability,[4]; first compound 0.3162 µM,0.932
same,relative viability,[4]; first compound 1 µM,1.43
same,relative viability,[5]; first compound 0.01 µM,0.705
same,relative viability,[5]; first compound 0.03162 µM,0.743
same,relative viability,[5]; first compound 0.1 µM,0.944
same,relative viability,[5]; first compound 0.3162 µM,0.967
same,relative viability,[5]; first compound 1 µM,1.08
same,relative viability,[6]; first compound 0.01 µM,1.09
same,relative viability,[6]; first compound 0.03162 µM,1.12
same,relative viability,[6]; first compound 0.1 µM,1.36
same,relative viability,[6]; first compound 0.3162 µM,1.1
same,relative viability,[6]; first compound 1 µM,0.961
same,relative viability,[7]; first compound 0.01 µM,1.11
same,relative viability,[7]; first compound 0.03162 µM,1.1
same,relative viability,[7]; first compound 0.1 µM,1.19
same,relative viability,[7]; first compound 0.3162 µM,0.978
same,relative viability,[7]; first compound 1 µM,1.12
same,relative viability,[8]; first compound 0.01 µM,0.985
same,relative viability,[8]; first compound 0.03162 µM,0.975
same,relative viability,[8]; first compound 0.1 µM,0.947
same,relative viability,[8]; first compound 0.3162 µM,1.2
same,relative viability,[8]; first compound 1 µM,0.638
same,relative viability,[9]; first compound 0.01 µM,1.12
same,relative viability,[9]; first compound 0.03162 µM,1.06
same,relative viability,[9]; first compound 0.1 µM,1.04
same,relative viability,[9]; first compound 0.3162 µM,1.16
same,relative viability,[9]; first compound 1 µM,0.793
same,relative viability,[10]; first compound 0.03162 µM,0.93
same,relative viability,[10]; first compound 0.1 µM,1.07
same,relative viability,[10]; first compound 0.3162 µM,0.725
same,relative viability,[10]; first compound 1 µM,0.551
same,relative viability,[11]; first compound 0.01 µM,0.214
same,relative viability,[11]; first compound 0.03162 µM,0.206
same,relative viability,[11]; first compound 0.1 µM,0.177
same,relative viability,[11]; first compound 0.3162 µM,0.177
same,relative viability,[11]; first compound 1 µM,0.172
same,relative viability,[12]; first compound 0.01 µM,0.946
same,relative viability,[12]; first compound 0.03162 µM,0.941
same,relative viability,[12]; first compound 0.1 µM,0.961
same,relative viability,[12]; first compound 0.3162 µM,0.999
same,relative viability,[12]; first compound 1 µM,0.859
same,relative viability,[13]; first compound 0.01 µM,0.833
same,relative viability,[13]; first compound 0.03162 µM,0.469
same,relative viability,[13]; first compound 0.1 µM,0.764
same,relative viability,[13]; first compound 0.3162 µM,0.581
same,relative viability,[13]; first compound 1 µM,0.227
same,relative viability,[14]; first compound 0.01 µM,1.01
same,relative viability,[14]; first compound 0.03162 µM,1.16
same,relative viability,[14]; first compound 0.1 µM,1.19
same,relative viability,[14]; first compound 0.3162 µM,1.09
same,relative viability,[14]; first compound 1 µM,1.33
same,relative viability,[15]; first compound 0.01 µM,1.05
same,relative viability,[15]; first compound 0.03162 µM,1.07
same,relative viability,[15]; first compound 0.1 µM,1.73
same,relative viability,[15]; first compound 0.3162 µM,1.27
same,relative viability,[15]; first compound 1 µM,1.06
same,relative viability,[16]; first compound 0.01 µM,1.1
same,relative viability,[16]; first compound 0.03162 µM,1.03
same,relative viability,[16]; first compound 0.1 µM,0.775
same,relative viability,[16]; first compound 0.3162 µM,1.1
same,relative viability,[16]; first compound 1 µM,0.971
same,relative viability,[17]; first compound 0.01 µM,1.06
same,relative viability,[17]; first compound 0.03162 µM,1.35
same,relative viability,[17]; first compound 0.1 µM,1.19
same,relative viability,[17]; first compound 0.3162 µM,1.22
same,relative viability,[17]; first compound 1 µM,0.74
same,relative viability,[18]; first compound 0.01 µM,0.809
same,relative viability,[18]; first compound 0.03162 µM,0.841
same,relative viability,[18]; first compound 0.1 µM,0.906
same,relative viability,[18]; first compound 0.3162 µM,0.909
same,relative viability,[18]; first compound 1 µM,0.653
same,relative viability,[19]; first compound 0.01 µM,1.27
same,relative viability,[19]; first compound 0.03162 µM,1.18
same,relative viability,[19]; first compound 0.1 µM,0.985
same,relative viability,[19]; first compound 0.3162 µM,1.53
same,relative viability,[19]; first compound 1 µM,0.532
same,relative viability,[20]; first compound 0.01 µM,0.386
same,relative viability,[20]; first compound 0.03162 µM,0.361
same,relative viability,[20]; first compound 0.1 µM,0.399
same,relative viability,[20]; first compound 0.3162 µM,0.422
same,relative viability,[20]; first compound 1 µM,0.387
